Experimental data as given in ChEMBL document CHEMBL1201862, “PubChem BioAssay data set” (2004).
Calls of active or inactive are those of the source.

Key:
[1] = A Cell Based Assay for the Identification of Probe candidate Compounds with Anti- Venezuelan Equine Encephalitis virus. [Related pubchem assays: 2409, 2419, 1621, 2238, 2405, 2024, 2065, 2402, 2414, 1635, 1650, 2244 ]; type: functional
Vero [2] = assay: cytotoxicity of synthesized analogs in Vero cells, SAR follow-up, cytotoxicity control for West Nile virus antiviral project, cell-based, set II (AID 2402); type: functional, Chlorocebus sabaeus; details: Chlorocebus sabaeus, Vero
Vero [3] = assay: Vero E6 cell cytotoxicity, SAR follow-up, cytotoxicity control for West Nile virus antiviral project, synthesized analogs (AID 2244); type: functional; details: Chlorocebus sabaeus
[4] = biological target: DNA repair and recombination protein RAD54-like (Homo sapiens, UniProt Q92698); assay: inhibitors of human RAD54 branch migration, confirmation, biochemical, fluorescence, cherry-picked samples, dose series (AID 651657); type: functional
Vero [5] = assay: cytotoxicity of synthesized analogs in Vero 76, SAR follow-up, cytotoxicity control for West Nile virus antiviral project, Vero 76 cells (AID 2414); type: functional, Chlorocebus sabaeus; details: Chlorocebus sabaeus, Vero
[6] = biological target: T1, Ubiquitin-conjugating enzyme E2 N (Homo sapiens, UniProt P61088); type: functional;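 further: Dose-response confirmation in a TR-FRET assay detecting UBC13-driven polyubiquitin chain formation, inhibition measured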
T1 sequence (P61088 whole entry): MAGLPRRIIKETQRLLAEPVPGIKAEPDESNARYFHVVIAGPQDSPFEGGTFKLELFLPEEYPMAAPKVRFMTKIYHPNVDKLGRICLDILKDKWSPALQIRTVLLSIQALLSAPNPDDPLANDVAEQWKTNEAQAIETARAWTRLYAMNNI

[7] = A cytotoxicity screen of small molecule inhibitors of the PhoP region in Salmonella typhi identified in the primary screen. [Related pubchem assays: 1850, 1864, 1985 ]; type: functional
[8] = A High Throughput Confirmatory Assay used to Identify Novel Compounds that Inhibit Mycobacterium Tuberculosis in the absence of Glycerol.; type: functional
Mucolipin-3 = Mucolipin-3 (Homo sapiens, UniProt Q8TDD5); assay: Dose response cell-based high-throughput screening assay for agonists of the transient receptor potential channel ML3 (TRPML3). [Related pubchem assays: 1526, 1424, 1448 ]; type: functional
Ion channel NompC = Ion channel NompC (Danio rerio, UniProt Q7T1G6); assay: Fluorescence counterscreen assay for TRPML3 agonists: dose response cell-based high-throughput screening assay to identify agonists of the transient receptor potential channel N1 (TRPN1). [Related pubchem assays: 1526, 1424, 1448 ]; type: functional
[9] = biological target: Transitional endoplasmic reticulum ATPase (Homo sapiens, UniProt P55072, C522A); assay: C522A mutant p97 ATPase inhibitors, dose response, counter-screen for p97 inhibitor project, biochemical, luminescence (AID 1544)
[10] = biological target: Transitional endoplasmic reticulum ATPase (Homo sapiens, UniProt P55072); assay: p97 ATPase inhibitors, dose response, biochemical (AID 1534)
[11] = biological target: Glucose-6-phosphate 1-dehydrogenase (Homo sapiens, UniProt P11413); assay: human G6PD enzyme inhibitors, dose response, selectivity assay for P. falciparum G6PD inhibitor project, biochemical, fluorescence (AID 504792); type: functional
Beta-galactosidase = Beta-galactosidase (Escherichia coli, UniProt Q8VNN2); assay: beta-galactosidase enzyme inhibitors and activators, dose response, artefact control for CCR6 antagonist project, biochemical, E. coli enzyme, set 3 (AID 504712); type: functional
[12] = biological target: Heat shock protein HSP 90-alpha (Homo sapiens, UniProt P07900); type: functional, organism-based
[13] = biological target: Induced myeloid leukemia cell differentiation protein Mcl-1 (Homo sapiens, UniProt Q07820); type: functional

Chain of Ion channel NompC (Q7T1G6 whole entry): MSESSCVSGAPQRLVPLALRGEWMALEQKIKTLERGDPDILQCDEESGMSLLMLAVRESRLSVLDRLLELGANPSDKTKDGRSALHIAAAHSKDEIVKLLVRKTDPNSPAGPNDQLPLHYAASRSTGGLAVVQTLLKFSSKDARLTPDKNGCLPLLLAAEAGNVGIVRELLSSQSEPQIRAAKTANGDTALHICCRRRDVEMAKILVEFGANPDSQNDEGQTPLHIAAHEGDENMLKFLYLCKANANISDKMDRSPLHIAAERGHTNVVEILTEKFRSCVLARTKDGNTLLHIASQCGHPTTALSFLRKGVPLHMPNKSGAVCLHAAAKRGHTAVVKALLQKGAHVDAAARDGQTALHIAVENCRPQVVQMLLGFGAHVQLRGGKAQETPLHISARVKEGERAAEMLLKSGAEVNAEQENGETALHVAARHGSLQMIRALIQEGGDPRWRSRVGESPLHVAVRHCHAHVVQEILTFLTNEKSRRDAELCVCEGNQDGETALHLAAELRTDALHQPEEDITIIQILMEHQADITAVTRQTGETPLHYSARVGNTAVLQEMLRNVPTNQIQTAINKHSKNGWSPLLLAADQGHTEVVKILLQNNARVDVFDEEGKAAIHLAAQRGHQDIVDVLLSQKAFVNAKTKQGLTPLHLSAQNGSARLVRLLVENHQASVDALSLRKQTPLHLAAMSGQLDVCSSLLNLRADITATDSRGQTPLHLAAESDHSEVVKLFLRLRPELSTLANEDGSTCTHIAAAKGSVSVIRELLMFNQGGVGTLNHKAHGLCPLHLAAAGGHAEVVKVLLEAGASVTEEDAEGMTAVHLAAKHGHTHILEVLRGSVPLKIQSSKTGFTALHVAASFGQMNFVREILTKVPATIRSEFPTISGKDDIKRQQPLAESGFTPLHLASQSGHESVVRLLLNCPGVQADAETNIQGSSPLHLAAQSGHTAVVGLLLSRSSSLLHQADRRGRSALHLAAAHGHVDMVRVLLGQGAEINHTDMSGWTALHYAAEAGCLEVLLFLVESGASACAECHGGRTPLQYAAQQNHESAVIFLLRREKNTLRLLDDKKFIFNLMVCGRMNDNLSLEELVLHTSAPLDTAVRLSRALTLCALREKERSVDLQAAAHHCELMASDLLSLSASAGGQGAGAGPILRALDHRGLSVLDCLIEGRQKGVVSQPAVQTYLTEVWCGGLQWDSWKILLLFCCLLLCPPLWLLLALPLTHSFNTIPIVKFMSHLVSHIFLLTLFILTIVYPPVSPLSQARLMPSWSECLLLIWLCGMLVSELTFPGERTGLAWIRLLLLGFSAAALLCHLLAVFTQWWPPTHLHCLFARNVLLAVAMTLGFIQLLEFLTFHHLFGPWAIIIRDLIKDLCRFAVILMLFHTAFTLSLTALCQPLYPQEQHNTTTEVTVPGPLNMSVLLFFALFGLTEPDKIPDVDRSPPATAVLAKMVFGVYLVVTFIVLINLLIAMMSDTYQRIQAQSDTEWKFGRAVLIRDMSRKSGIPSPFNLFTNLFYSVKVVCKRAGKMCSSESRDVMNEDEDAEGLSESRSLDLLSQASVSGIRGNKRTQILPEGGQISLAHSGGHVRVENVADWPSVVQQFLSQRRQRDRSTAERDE
Chain of Mucolipin-3 (Q8TDD5 whole entry): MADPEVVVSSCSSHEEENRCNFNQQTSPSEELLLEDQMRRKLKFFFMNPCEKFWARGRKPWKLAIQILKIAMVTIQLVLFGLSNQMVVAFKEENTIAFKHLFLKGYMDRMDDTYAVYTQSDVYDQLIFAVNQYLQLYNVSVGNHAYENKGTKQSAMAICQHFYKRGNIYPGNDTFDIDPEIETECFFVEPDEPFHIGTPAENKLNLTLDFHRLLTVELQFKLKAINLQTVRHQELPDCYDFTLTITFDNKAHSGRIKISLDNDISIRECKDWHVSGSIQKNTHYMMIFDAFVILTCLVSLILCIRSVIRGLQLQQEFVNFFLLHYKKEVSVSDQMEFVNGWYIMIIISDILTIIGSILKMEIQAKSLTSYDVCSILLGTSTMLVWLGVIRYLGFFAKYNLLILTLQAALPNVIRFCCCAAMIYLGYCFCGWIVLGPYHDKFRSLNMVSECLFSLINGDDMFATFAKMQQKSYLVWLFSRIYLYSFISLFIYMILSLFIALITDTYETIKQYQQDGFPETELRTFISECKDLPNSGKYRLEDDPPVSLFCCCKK
Chain of Beta-galactosidase (Q8VNN2 whole entry): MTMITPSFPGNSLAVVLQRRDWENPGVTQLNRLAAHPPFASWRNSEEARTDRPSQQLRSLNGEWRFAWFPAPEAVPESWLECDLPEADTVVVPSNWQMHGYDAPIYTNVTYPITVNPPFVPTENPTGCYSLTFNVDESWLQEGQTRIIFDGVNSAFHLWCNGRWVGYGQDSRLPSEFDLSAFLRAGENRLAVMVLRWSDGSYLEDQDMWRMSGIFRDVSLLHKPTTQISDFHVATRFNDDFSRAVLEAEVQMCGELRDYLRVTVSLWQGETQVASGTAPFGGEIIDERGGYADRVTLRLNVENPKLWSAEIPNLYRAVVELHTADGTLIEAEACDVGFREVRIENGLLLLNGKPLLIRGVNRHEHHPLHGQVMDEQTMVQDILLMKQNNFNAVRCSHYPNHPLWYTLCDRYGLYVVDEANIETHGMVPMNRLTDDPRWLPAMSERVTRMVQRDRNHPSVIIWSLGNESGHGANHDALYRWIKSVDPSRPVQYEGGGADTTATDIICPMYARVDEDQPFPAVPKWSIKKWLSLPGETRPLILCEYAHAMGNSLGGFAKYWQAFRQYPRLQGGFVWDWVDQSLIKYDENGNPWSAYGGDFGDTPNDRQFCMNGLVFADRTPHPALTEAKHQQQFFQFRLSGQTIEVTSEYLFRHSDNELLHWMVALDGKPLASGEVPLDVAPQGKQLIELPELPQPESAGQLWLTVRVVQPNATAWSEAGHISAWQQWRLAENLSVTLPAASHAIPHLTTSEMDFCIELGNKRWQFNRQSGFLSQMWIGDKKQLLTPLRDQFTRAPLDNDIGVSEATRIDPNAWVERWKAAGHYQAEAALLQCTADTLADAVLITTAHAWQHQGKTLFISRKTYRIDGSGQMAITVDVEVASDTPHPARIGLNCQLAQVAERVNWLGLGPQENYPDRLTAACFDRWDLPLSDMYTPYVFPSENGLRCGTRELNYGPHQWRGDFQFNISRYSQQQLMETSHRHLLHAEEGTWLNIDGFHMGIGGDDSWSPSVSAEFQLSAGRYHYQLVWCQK
Chain of Transitional endoplasmic reticulum ATPase (Homo sapiens, UniProt P55072) (P55072 whole entry): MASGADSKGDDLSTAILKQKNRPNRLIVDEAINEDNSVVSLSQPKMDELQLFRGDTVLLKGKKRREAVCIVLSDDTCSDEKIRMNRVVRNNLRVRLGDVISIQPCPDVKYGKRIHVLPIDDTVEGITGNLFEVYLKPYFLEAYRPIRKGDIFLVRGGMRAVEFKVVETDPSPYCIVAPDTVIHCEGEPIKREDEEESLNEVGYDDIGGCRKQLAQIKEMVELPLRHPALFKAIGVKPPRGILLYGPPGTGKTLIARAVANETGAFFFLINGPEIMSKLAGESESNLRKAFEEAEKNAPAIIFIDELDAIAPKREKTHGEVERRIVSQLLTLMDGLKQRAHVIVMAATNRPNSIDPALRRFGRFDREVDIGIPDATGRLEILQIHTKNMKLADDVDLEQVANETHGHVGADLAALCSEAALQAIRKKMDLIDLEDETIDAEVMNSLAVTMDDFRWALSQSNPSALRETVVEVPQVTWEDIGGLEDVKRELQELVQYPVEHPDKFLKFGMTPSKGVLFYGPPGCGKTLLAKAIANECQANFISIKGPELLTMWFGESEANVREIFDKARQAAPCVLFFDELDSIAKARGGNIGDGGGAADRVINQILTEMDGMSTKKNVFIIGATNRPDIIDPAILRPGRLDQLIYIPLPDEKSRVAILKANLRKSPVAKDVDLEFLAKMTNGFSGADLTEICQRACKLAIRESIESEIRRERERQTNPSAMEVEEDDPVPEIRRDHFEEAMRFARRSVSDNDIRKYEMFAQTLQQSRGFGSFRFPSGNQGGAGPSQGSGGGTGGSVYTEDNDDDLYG
Chain of Transitional endoplasmic reticulum ATPase (Homo sapiens, UniProt P55072, C522A) (P55072 2-806 C522A limits assumed): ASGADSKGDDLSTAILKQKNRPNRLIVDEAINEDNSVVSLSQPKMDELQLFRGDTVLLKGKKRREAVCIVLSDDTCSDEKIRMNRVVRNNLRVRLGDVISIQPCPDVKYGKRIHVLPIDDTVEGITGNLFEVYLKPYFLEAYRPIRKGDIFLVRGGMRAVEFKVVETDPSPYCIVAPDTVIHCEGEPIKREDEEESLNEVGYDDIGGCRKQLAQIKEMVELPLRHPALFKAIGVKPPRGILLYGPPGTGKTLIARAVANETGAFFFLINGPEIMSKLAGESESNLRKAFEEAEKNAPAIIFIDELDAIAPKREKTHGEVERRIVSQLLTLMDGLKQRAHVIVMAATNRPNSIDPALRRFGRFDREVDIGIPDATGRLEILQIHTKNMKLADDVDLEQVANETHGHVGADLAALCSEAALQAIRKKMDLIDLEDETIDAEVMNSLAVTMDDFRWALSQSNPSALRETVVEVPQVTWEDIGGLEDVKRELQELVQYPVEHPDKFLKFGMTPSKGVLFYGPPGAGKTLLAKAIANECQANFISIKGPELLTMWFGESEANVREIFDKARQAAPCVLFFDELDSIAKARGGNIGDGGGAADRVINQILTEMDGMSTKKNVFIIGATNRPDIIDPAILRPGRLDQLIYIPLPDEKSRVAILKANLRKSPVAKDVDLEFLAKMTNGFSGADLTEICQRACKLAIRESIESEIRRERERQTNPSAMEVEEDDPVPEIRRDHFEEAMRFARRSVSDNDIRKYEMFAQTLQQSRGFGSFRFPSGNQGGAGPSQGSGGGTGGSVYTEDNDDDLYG

With `Cc1cccc2c1-c1sc(C(=O)NCCCN3CCCC(C)C3)cc1CO2` (stereo not drawn) the IC50 [1] was 6 µM (active), the CC50 (Vero [2]) was 6.26 µM (active) and the CC50 (Vero [3]) was 4.45 µM (active). The AC50 [4] was 90.1 µM (active), the CC50 (Vero [5]) was 19.4 µM (active) and the IC50 [6] was > 20 µM (inactive).

With `COc1ccc(-c2cnc(NCc3cc4c(cc3[N+](=O)[O-])OCO4)n2C)cc1` the EC50 [7] was > 50 µM (active).

In the case of `Cc1ccc(NC(=O)c2sccc2-n2cccc2)c(C)c1`, the IC50 [8] is reported as > 100 µM (active).

For `COc1cc(S(=O)(=O)N2CCCCCC2)ccc1Cl`, the EC50 (Mucolipin-3) was 1.9 µM (active) and the EC50 (Ion channel NompC) was > 29.9 µM (not active).

In the case of `CSC1=NSC2=NC(=O)/C(=C\c3c(C)[nH]c4ccccc34)C(=N)N12`, the IC50 [9] is reported as > 50 µM (not active) and the IC50 [10] is reported as 21.7 µM (not active).

In the case of `Cc1ccc(NC(=O)c2cc(N3C(=O)C=CC3=O)ccc2Cl)cc1C`, the IC50 [11] is reported as 50 µM (inactive), the IC50 (Beta-galactosidase) is reported as > 66.6 µM (inactive) and the AC50 [12] is reported as 1.5 µM (active). The IC50 [13] was 5.4 µM (active).

For `CCN(CC)C(=O)CC1(c2ccccc2OC)CCOC(C(C)C)C1` (stereo not drawn), the EC50 (Mucolipin-3) was 6.96 µM (active) and the EC50 (Ion channel NompC) was > 29.9 µM (not active).
